Measured values: BindingDB's records for doi:10.7270/Q2Z31X2S (Nmmlsc, 2009)

Molecular target: Cell division control protein 42 homolog (Homo sapiens, UniProt P60953)
Experiment: wild-type Cdc42 GTP-binding inhibitors, SAR follow-up, biochemical, bead-based multiplex flow cytometry, additional SAR set (AID 2022)
[1] = inactive by the depositor's call

Sequence of Cell division control protein 42 homolog (P60953 whole entry): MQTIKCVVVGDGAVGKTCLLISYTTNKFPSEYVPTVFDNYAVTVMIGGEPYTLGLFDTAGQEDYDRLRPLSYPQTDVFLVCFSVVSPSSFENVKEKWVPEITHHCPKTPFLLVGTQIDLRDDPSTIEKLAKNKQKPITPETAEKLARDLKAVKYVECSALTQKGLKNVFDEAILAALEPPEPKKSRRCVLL

| Compound | EC50 | EC50 [1] |
| --- | --- | --- |
| O=C1N=c2ccccc2=C1c1[nH]c2ccccc2c1NO [3-[3-(hydroxyamino)-1H-indol-2-yl]-2-indolone] | > 30 µM |  |
| O=C1Nc2ccccc2/C1=C1/Cc2ccccc2C1=O [UNM-0000305763] | > 30 µM |  |
| CC1=C(CC(=O)O)c2cc(F)ccc2/C1=C/c1ccc([S+](C)[O-])cc1 (stereo not given) [UNM-0000306136] | > 30 µM |  |
| O=C1Nc2c(F)cccc2C1=C1Nc2ccccc2C1=O | > 30 µM |  |
| O=C(C#Cc1ccccc1)c1cccnc1 [3-phenyl-1-pyridin-3-ylprop-2-yn-1-one] | > 30 µM |  |
| COc1ccc2cc(CC(=O)O)ccc2c1 [2-(6-methoxynaphthalen-2-yl)ethanoic acid] | > 30 µM |  |
| COc1ccc(S(=O)(=O)n2c(N)c(C#N)c(-c3cncc(Br)c3)c2C(=O)c2ccccc2)cc1 [2-amino-5-benzoyl-4-(5-bromo-3-pyridinyl)-1-(4-methoxyphenyl)sulfonyl-3-pyrrolecarbonitrile] | 22.8 µM |  |
| O=C(C#Cc1ccccc1)c1ccc(F)cc1 [UNM-0000306059] | > 30 µM |  |
| O=C1N=c2c(Cl)cccc2=C1c1[nH]c2ccccc2c1NO [7-chloro-3-[3-(hydroxyamino)-1H-indol-2-yl]-2-indolone] | > 30 µM |  |
| O=C(C#Cc1ccccc1)c1ccc(OC(F)(F)F)cc1 | > 30 µM |  |
| O=C1N=c2c(Br)cccc2=C1c1[nH]c2ccccc2c1NO [7-bromanyl-3-[3-(oxidanylamino)-1H-indol-2-yl]indol-2-one] | > 30 µM |  |
| O=C1Nc2ccc(Br)cc2C1=C1Nc2ccccc2C1=O | > 30 µM |  |
| O=C1Nc2c(Cl)cccc2C1=C1Nc2ccccc2C1=O | 0.027 µM |  |
| CC(C)Cc1ccc([C@H](C)C(=O)O)cc1 [(S)-2-(4-Isobutyl-phenyl)-propionic acid] |  | 16.6 µM |
| COc1cc(-c2c(C#N)c(N)n(S(=O)(=O)c3c(C(C)C)cc(C(C)C)cc3C(C)C)c2C(=O)c2ccccc2)cc(OC)c1OC [2-azanyl-5-(phenylcarbonyl)-4-(3,4,5-trimethoxyphenyl)-1-[2,4,6-tri(propan-2-yl)phenyl]sulfonyl-pyrrole-3-carbonitrile] | > 30 µM |  |
| CC(=O)Oc1ccccc1C(=O)O [2-(acetyloxy)benzoic acid] | > 30 µM |  |
| O=C1Nc2cccc(Br)c2/C1=C1/Cc2ccccc2C1=O | > 30 µM |  |
| O=C(C#Cc1ccccc1)c1ccccc1[N+](=O)[O-] [UNM-0000306038] | > 30 µM |  |
| C[C@@H](C(=O)O)c1cccc(Oc2ccccc2)c1 [calcium;2-(3-phenoxyphenyl)propanoic acid;hydrate] | > 30 µM |  |
| CSc1ccc(/C=C2/C(C)=C(CC(=O)O)c3cc(F)ccc32)cc1 [{6-Fluoro-2-methyl-3-[1-(4-methylsulfanyl-phenyl)-meth-(E)-ylidene]-3H-inden-1-yl}-acetic acid] | > 30 µM |  |
| O=[N+]([O-])c1ccc(C#Cc2ccccc2)cc1 | > 30 µM |  |
| COc1ccc(C(=O)C#Cc2ccccc2)cc1 [1-(4-methoxyphenyl)-3-phenyl-2-propyn-1-one] | > 30 µM |  |
| N#Cc1c(-c2ccc(Cl)cc2)c(C(=O)c2ccccc2)n(S(=O)(=O)c2ccc([N+](=O)[O-])cc2)c1N [UNM-0000305780] |  | 7.21 µM |

The remaining lines, values ahead:

| EC50 | EC50 [1] | Compound |
| --- | --- | --- |
| > 30 µM |  | O=C1Nc2ccccc2/C1=C1/Nc2ccccc2C1=O [2-[(3Z)-2-oxo-2,3-dihydro-1H-indol-3-ylidene]-2,3-dihydro-1H-indol-3-one] |
|  | 11.2 µM | COc1ccc(-c2c(C#N)c(N)n(S(C)(=O)=O)c2C(=O)c2ccccc2)cc1Br [2-azanyl-4-(3-bromanyl-4-methoxy-phenyl)-1-methylsulfonyl-5-(phenylcarbonyl)pyrrole-3-carbonitrile] |
| > 30 µM |  | COc1ccc(S(=O)(=O)n2c(N)c(C#N)c(-c3cc(Br)c(OC)c(OC)c3)c2C(=O)c2ccccc2)cc1 [UNM-0000305782] |
| 28.1 µM |  | O=C1N=c2c(F)cccc2=C1c1[nH]c2ccccc2c1NO [7-fluoro-3-[3-(hydroxyamino)-1H-indol-2-yl]-2-indolone] |
| > 30 µM |  | N#Cc1ccc(C(=O)C#Cc2ccccc2)cc1 [4-(3-phenylprop-2-ynoyl)benzenecarbonitrile] |
| > 30 µM |  | O=C1NC(=S)N/C1=C1\C(=O)Nc2ccccc21 [(3Z)-3-(5-oxo-2-sulfanylideneimidazolidin-4-ylidene)-1H-indol-2-one] |
| > 30 µM |  | CCCCS(=O)(=O)n1c(N)c(C#N)c(-c2cc(OC)c(OC)c(OC)c2)c1C(=O)c1ccccc1 [2-amino-5-benzoyl-1-butylsulfonyl-4-(3,4,5-trimethoxyphenyl)-3-pyrrolecarbonitrile] |
| > 30 µM |  | COc1ccc(S(=O)(=O)n2c(N)c(C#N)c(-c3ccccc3)c2C(=O)c2ccc(Br)cc2)cc1 |
| > 30 µM |  | O=C1NC(=O)/C(=C2/C(=O)Nc3ccccc32)N1 |
| > 30 µM |  | O=C1Nc2c(Br)cccc2C1=C1Nc2ccccc2C1=O |
| > 30 µM |  | O=C1Nc2c(Br)cccc2/C1=C1/Cc2ccccc2C1=O [(3E)-7-bromo-3-(3-oxo-1H-inden-2-ylidene)-1H-indol-2-one] |
| > 30 µM |  | O=C1N=c2ccc(Br)cc2=C1c1[nH]c2ccccc2c1NO [5-bromanyl-3-[3-(oxidanylamino)-1H-indol-2-yl]indol-2-one] |
| > 30 µM |  | COC(=O)c1ccc(C(=O)C#Cc2ccccc2)cc1 [4-(1-oxo-3-phenylprop-2-ynyl)benzoic acid methyl ester] |
| > 30 µM |  | O=C(C#Cc1ccccc1)c1ccc(Cl)cc1 [UNM-0000306055] |
| > 30 µM |  | CC(C(=O)O)c1cccc(C(=O)c2ccccc2)c1 (stereo not given) [2-(3-benzoylphenyl)propanoic acid] |
| > 30 µM |  | O=C(C#Cc1ccccc1)c1ccc([N+](=O)[O-])cc1 [1-(4-nitrophenyl)-3-phenyl-2-propyn-1-one] |
| > 30 µM |  | O=C(C#Cc1ccccc1)c1ccccc1 [UNM-0000306039] |
